Measured values: ChEMBL document CHEMBL4376892, “Identification of Parthenolide Dimers as Activators of Pyruvate Kinase M2 in Xenografts of Glioblastoma Multiforme in Vivo” (J Med Chem, 2020)
Activity calls are given as the source filed them. The calls are words filed in the database; no cut-off is given here.

Legend:
U-118-MG [1] = test: Effect on P65 protein expression in human U118MG cells at 0.2 to 0.5 uM after 48 hrs by Western blot analysis; format: functional, cell-based
U-87 MG [2] = test: Induction of apoptosis in human U87 cells assessed as necrotic cells after 48 hrs by Annexin-V-FITC/PI-staining based flow cytometric analysis (reference value: 0.1%); format: functional, U-87MG ATCC
U-118-MG [3] = test: Induction of apoptosis in human U118MG cells transfected with lentivirus expressing shNC assessed as viable cells after 48 hrs by Annexin-V-FITC/PI-staining based flow cytometric analysis (reference value: 96.7%); format: functional
Pyruvate kinase PKM [4] = target: T1, Pyruvate kinase PKM (Homo sapiens, UniProt P14618); test: Activation of recombinant human N-terminal 6His-tagged PKM2 expressed in Escherichia coli BL21 cells at 0.2 to 0.5 uM after 50 mins by fluorescence based analysis
Target sequence in this assay (P14618 2-531 limits assumed): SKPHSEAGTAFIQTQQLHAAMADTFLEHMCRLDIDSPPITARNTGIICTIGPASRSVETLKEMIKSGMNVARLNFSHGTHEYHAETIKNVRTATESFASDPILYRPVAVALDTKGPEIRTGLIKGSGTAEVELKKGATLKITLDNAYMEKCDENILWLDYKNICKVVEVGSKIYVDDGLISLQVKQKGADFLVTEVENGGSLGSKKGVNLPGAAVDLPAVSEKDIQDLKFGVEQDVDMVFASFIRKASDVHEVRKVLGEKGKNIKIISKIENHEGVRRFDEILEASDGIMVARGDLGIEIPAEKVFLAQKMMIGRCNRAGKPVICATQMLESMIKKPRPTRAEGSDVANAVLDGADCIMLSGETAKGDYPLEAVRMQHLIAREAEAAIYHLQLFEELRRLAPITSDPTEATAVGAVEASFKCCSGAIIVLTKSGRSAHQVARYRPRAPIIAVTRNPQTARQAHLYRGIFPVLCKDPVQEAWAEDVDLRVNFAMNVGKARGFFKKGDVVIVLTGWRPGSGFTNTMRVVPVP

U-87 MG [5] = test: Induction of apoptosis in human U87 cells after 48 hrs by Annexin-V-FITC/PI-staining based flow cytometric analysis; format: functional, cell-based; settings: U-87MG ATCC
U-87 MG [6] = test: Induction of apoptosis in human U87 cells transfected with lentivirus expressing shPKM2 assessed as early apoptotic cells after 48 hrs by Annexin-V-FITC/PI-staining based flow cytometric analysis (reference value: 0.88%); format: functional, U-87MG ATCC
U-118-MG [7] = test: Antiinvasive activity against human U118MG cells transfected with lentivirus expressing shNC at 2 uM incubated for 48 hrs by crystal violet staining based transwell assay; format: functional, cell-based
[8] = target: T2, Inhibitor of nuclear factor kappa-B kinase subunit beta (Homo sapiens) (UniProt O14920); test: Effect on IKKbeta phosphorylation in human U118MG cells at 0.2 to 0.5 uM after 48 hrs by Western blot analysis; format: cell-based
T2 sequence (whole entry): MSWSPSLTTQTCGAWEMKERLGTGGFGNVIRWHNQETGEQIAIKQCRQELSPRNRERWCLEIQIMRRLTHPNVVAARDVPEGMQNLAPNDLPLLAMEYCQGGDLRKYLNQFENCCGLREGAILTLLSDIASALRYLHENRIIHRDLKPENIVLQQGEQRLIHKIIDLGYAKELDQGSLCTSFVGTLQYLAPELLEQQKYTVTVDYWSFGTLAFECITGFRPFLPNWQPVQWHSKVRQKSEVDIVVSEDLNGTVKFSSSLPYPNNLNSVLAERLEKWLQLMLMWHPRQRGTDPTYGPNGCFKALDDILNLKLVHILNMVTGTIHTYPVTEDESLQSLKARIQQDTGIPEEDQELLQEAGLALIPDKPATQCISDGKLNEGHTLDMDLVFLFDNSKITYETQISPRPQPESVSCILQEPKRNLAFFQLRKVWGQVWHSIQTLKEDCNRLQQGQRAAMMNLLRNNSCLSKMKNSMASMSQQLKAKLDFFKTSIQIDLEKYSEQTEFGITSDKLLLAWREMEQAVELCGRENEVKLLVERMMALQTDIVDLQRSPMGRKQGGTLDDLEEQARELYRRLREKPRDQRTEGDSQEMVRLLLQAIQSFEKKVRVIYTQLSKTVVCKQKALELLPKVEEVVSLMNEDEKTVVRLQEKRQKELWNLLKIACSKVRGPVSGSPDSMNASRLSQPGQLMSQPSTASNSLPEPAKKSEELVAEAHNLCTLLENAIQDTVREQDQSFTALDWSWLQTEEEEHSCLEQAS

U-87MG ATCC = test: Effect on total PKM2 protein expression in human U87 cells at 0.5 to 5 uM after 48 hrs by Western blot analysis; format: functional, cell-based
U-87 MG [9] = test: Antiproliferative activity against human U87 cells transfected with lentivirus expressing shNC assessed as reduction in cell viability after 24 hrs by MTT assay; format: functional, cell-based, U-87MG ATCC
U-87 MG [10] = test: Antimigratory activity against human U87 cells transfected with lentivirus expressing shNC at 2 uM incubated for 48 hrs by crystal violet staining based transwell assay; format: functional, cell-based; settings: U-87MG ATCC
U-87 MG [11] = test: Inhibition of colony formation in human U87 cells after 7 days; format: functional, cell-based; settings: U-87MG ATCC
Pyruvate kinase PKM [12] = target: T1, Pyruvate kinase PKM; test: Induction of tetrameric formation of recombinant human N-terminal 6His-tagged PKM2 expressed in Escherichia coli BL21 cells assessed as increase in particle size at 10 uM after 30 mins by dynamic laser light scattering analysis
Target sequence in this assay (P14618 2-531 limits assumed): as the sequence (P14618 2-531 limits assumed) above

U-118-MG [13] = test: Induction of apoptosis in human U118MG cells transfected with lentivirus expressing shPKM2 assessed as early apoptotic cells after 48 hrs by Annexin-V-FITC/PI-staining based flow cytometric analysis (reference value: 2%); format: functional
U-118-MG [14] = test: Antimigratory activity against human U118MG cells transfected with lentivirus expressing shNC at 2 uM incubated for 48 hrs by crystal violet staining based transwell assay; format: functional, cell-based
U-118-MG [15] = test: Antiproliferative activity against human U118MG cells transfected with lentivirus expressing shNC assessed as reduction in cell viability after 24 hrs by MTT assay; format: functional, cell-based
[16] = Antiproliferative activity against human SHG44 cells assessed as reduction in cell viability after 72 hrs by MTT assay; format: functional, cell-based; settings: SHG-44, 72 h
Pyruvate kinase PKM [17] = target: T1, Pyruvate kinase PKM; test: Activation of PKM2 in human U87 cells assessed as increase in PKM2 tetramer formation at 0.5 to 1 uM after 48 hrs by chemical cross-linking based Western blot analysis; format: cell-based; settings: U-87MG ATCC
Target sequence in this assay (P14618 2-531 limits assumed): as the sequence (P14618 2-531 limits assumed) above

Pyruvate kinase PKM [18] = target: T1, Pyruvate kinase PKM; test: Covalent binding affinity to recombinant human N-terminal 6His-tagged PKM2 expressed in Escherichia coli BL21 Cells after 2 hrs by LC-MS/MS analysis
Target sequence in this assay (P14618 2-531 limits assumed): as the sequence (P14618 2-531 limits assumed) above

Pyruvate kinase PKM [19] = target: T1, Pyruvate kinase PKM; test: Activation of recombinant human N-terminal 6His-tagged PKM2 expressed in Escherichia coli BL21 cells after 50 mins by fluorescence based analysis
Target sequence in this assay (P14618 whole entry): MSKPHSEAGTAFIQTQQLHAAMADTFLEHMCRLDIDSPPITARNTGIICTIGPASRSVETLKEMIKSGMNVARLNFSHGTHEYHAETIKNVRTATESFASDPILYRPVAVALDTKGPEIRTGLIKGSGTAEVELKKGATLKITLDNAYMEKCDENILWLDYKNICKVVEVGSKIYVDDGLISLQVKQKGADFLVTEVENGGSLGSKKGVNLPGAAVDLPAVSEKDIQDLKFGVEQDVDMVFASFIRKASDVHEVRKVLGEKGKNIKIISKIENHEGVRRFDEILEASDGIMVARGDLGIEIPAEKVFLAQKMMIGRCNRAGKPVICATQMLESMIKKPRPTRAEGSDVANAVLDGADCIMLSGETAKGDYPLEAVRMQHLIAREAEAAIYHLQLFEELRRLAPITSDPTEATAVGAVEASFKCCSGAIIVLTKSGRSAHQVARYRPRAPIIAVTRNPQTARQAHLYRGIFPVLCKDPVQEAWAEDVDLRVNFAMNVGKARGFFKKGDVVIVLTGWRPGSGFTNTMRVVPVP

Pyruvate kinase PKM [20] = target: T1, Pyruvate kinase PKM; test: Binding affinity to recombinant human N-terminal 6His-tagged PKM2 expressed in Escherichia coli BL21 cells assessed as increase in thermal stability of enzyme at melting temperature of 42 to 56 degC at 10 to 50 uM by western blot analysis
Target sequence in this assay (P14618 2-531 limits assumed): as the sequence (P14618 2-531 limits assumed) above

Pyruvate kinase PKM [21] = target: T1, Pyruvate kinase PKM; test: Activation of recombinant human N-terminal 6His-tagged PKM2 expressed in Escherichia coli BL21 cells at 10 uM after 30 mins by fluorescence based analysis relative to control
Target sequence in this assay (P14618 2-531 limits assumed): as above

U-87 MG [22] = test: Antimigratory activity against human U87 cells transfected with lentivirus expressing shPKM2 at 2 uM incubated for 48 hrs by crystal violet staining based transwell assay; format: functional, cell-based; settings: U-87MG ATCC
U-118-MG [23] = test: Antiproliferative activity against human U118MG cells transfected with lentivirus expressing shPKM2 assessed as as reduction in cell viability after 24 hrs by MTT assay; format: functional, cell-based
Pyruvate kinase PKM [24] = target: T1, Pyruvate kinase PKM; test: Activation of PKM2 in human U87 cells assessed as reduction in vimentin expression at 1 to 2 uM after 24 hrs by Western blot analysis; format: cell-based; settings: U-87MG ATCC
Pyruvate kinase PKM [25] = target: T1, Pyruvate kinase PKM; test: Activation of PKM2 in human U118MG cells assessed as inhibition of STAT3 phosphorylation at 1 to 2 uM after 24 hrs by Western blot analysis; format: cell-based
U-118-MG [26] = test: Induction of apoptosis in human U118MG cells after 48 hrs by Annexin-V-FITC/PI-staining based flow cytometric analysis; format: functional, cell-based
Pyruvate kinase PKM [27] = target: T1, Pyruvate kinase PKM; test: Activation of PKM2 in human U87 cells assessed as inhibition of STAT3 protein expression at 1 to 2 uM after 24 hrs by Western blot analysis; format: cell-based; settings: U-87MG ATCC
U-118-MG [28] = test: Antimetastatic activity against human U118MG cells assessed as reduction in cell migration at 2 uM after 24 hrs by crystal violet staining based transwell assay; format: functional

Q: What does the source list for `C=C1C(=O)O[C@H]2[C@H]1CC/C(C(=O)OCCOCCOC(=O)/C1=C/CC[C@@]3(C)O[C@H]3[C@H]3OC(=O)C(=C)[C@@H]3CC1)=C\CC[C@@]1(C)O[C@@H]21`?
A: Activity (U-118-MG [1]): inactive; Activity (U-87 MG [2]): 0.256%; Activity (U-118-MG [3]): 34.7%; Activity (Pyruvate kinase PKM [4]): Active; Activity (U-87 MG [5]): Dose-dependent effect; Activity (U-87 MG [6]): 3.74%; Activity (U-118-MG [7]): Active; Activity [8]: inactive; Activity (U-87MG ATCC): inactive; IC50 (U-87 MG [9]): 7390 nM; Activity (U-87 MG [10]): Active; inhibition (U-87 MG [11]): Dose-dependent effect; Activity (Pyruvate kinase PKM [12]): Active; Activity (U-118-MG [13]): 5.78%; Activity (U-118-MG [14]): Active; IC50 (U-118-MG [15]): 1040 nM; IC50 [16]: 5240 nM; Activity (Pyruvate kinase PKM [17]): Active; Activity (Pyruvate kinase PKM [18]): Active; AC50 (Pyruvate kinase PKM [19]): 15 nM; Activity (Pyruvate kinase PKM [20]): Active; fold change (FC) (Pyruvate kinase PKM [21]): > 2; Activity (U-87 MG [22]): inactive; IC50 (U-118-MG [23]): 1980 nM; Activity (Pyruvate kinase PKM [24]): Active; Activity (Pyruvate kinase PKM [25]): Active; Activity (U-118-MG [26]): Dose-dependent effect; Activity (Pyruvate kinase PKM [27]): Active; Activity (U-118-MG [28]): Active
